Laboratory results published in PubChem BioAssay (NCI).
Values joined by “and” are separate entries in the source; they are usually repeats but may differ in a detail not shown here. Equal values may be shown once.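 Exposure lasted 48 hours, with cells grown in 96-well plates and compounds tested at five concentrations. GI50 = concentration required for 50% inhibition of growth. TGI: concentration producing complete growth inhibition.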

Legend:
Assay in all cases: inhibition of tumour cell growth, NCI panel, 48 h
A498 renal = system: A498 renal
MDA-MB-231 breast = system: MDA-MB-231 breast
NCI/ADR-RES ovarian = system: NCI/ADR-RES ovarian
UACC-257 melanoma = system: UACC-257 melanoma
MOLT-4 leukemia = system: MOLT-4 leukemia
M14 melanoma = system: M14 melanoma
HCC-2998 colon = system: HCC-2998 colon
CCRF-CEM leukemia = system: CCRF-CEM leukemia
NCI-H226 lung = system: NCI-H226 lung
HT29 colon = system: HT29 colon

Compound	GI50 (A498 renal)	TGI (A498 renal)	GI50 (MDA-MB-231 breast)	TGI (MDA-MB-231 breast)	GI50 (NCI/ADR-RES ovarian)	TGI (NCI/ADR-RES ovarian)	GI50 (UACC-257 melanoma)	TGI (UACC-257 melanoma)	GI50 (MOLT-4 leukemia)	TGI (MOLT-4 leukemia)	GI50 (M14 melanoma)	TGI (M14 melanoma)	GI50 (HCC-2998 colon)	TGI (HCC-2998 colon)	GI50 (CCRF-CEM leukemia)	TGI (CCRF-CEM leukemia)	GI50 (NCI-H226 lung)	TGI (NCI-H226 lung)	GI50 (HT29 colon)	TGI (HT29 colon)
N#Cc1c(N)nc(N2CCOCC2)c(C#N)c1-c1ccc(Cl)cc1	8.11 µM	36.3 µM	17.5 µM	90.9 µM	23.6 µM	76.2 µM	40.8 µM	> 100 µM	43.7 µM	> 100 µM	44.6 µM	> 100 µM	21.7 µM	99.2 µM	34.5 µM	> 100 µM	50.4 µM	> 100 µM	43.3 µM	> 100 µM
CN(C)c1ccc(-c2cc(-c3ccc(Nc4nc(Nc5ccccc5)nc(Nc5ccc(Cl)cc5)n4)cc3)nc(N)n2)cc1	4.63 µM	20.1 µM	5.64 µM	23.4 µM	9.23 µM	> 100 µM	5.81 µM	37.4 µM	1.8 µM	7.87 µM	3.65 µM	17.6 µM	13.7 µM	87.9 µM	3.73 µM	23 µM	12.1 µM	98.7 µM	3.27 µM	12.7 µM
C=CCNCCCN1C(=O)c2ccc3c4c(ccc(c24)C1=O)C(=O)N(CCCNCC=C)C3=O	0.394 µM	1.76 µM	0.681 µM	5.91 µM	1.74 µM	12.6 µM	0.333 µM	1.2 µM	0.335 µM	1.68 µM	0.47 µM	1.66 µM	0.428 µM	1.54 µM	0.349 µM	3.78 µM	0.292 µM	0.987 µM	0.157 µM	0.499 µM
O=C1/C(=C/c2ccc([N+](=O)[O-])o2)Oc2ccc(Br)cc21	15.9 µM	30.1 µM	1.8 µM	3.84 µM	10.9 µM	42 µM	2 µM	4.38 µM	3.07 µM	9.4 µM	2.68 µM	7.01 µM	8.01 µM	27.5 µM	2 µM	4.97 µM	2.12 µM	5.37 µM	2.64 µM	5.78 µM
C/C([O-])=C1\Cc2ccccc2C1=O.C/C([O-])=C1\Cc2ccccc2C1=O.CC[O-].CC[O-].[Ti+4]	13.4 µM	31.5 µM	12.9 µM	70.9 µM	23.4 µM	> 100 µM	38.6 µM	> 100 µM	16.5 µM	> 46.4 µM	16.8 µM	42.3 µM	17.3 µM	58.8 µM	13.9 µM	> 70.2 µM	7.47 µM	35.7 µM	31.9 µM	> 100 µM
CN(c1ccc(NC(=O)Nc2ccc(OC(F)(F)F)cc2)cc1)c1ccnc(Nc2cccc(S(N)(=O)=O)c2)n1	1.15 µM	3.37 µM	4.92 µM	15.1 µM	12.6 µM	25 µM	3.77 µM	9.14 µM	1.11 µM	4.16 µM	3.39 µM	8.03 µM	5.11 µM	9.27 µM	0.412 µM	25 µM	3.28 µM	9.51 µM	1.35 µM	5.95 µM
CC(CN1CCN(C)CC1)CN1c2ccccc2Sc2ccc(C(F)(F)F)cc21 (stereo not given)	2.98 µM	15.2 µM	1.36 µM	2.82 µM	1.94 µM	4.94 µM	1.89 µM	3.81 µM	2.05 µM	4.77 µM	1.75 µM	3.25 µM	1.63 µM	3.07 µM	2.6 µM	6.74 µM	2.6 µM	8.51 µM	1.8 µM	3.27 µM
Cc1nc2sc(C(=O)Nc3cccc4ccccc34)c(N)c2cc1C(=O)/C=C/c1ccccc1	0.337 µM	1.87 µM	0.709 µM	2.61 µM	0.173 µM	0.593 µM	5.09 µM	> 30.3 µM	0.251 µM	> 28.4 µM	0.181 µM	1.68 µM	0.852 µM	1.63 µM	0.178 µM	> 24.9 µM	0.389 µM	1.56 µM	0.173 µM	1.06 µM
COc1ccc(C(=O)/C=C/c2c(C(F)(F)F)nc3sccn23)cc1OC	7.58 µM	54.9 µM	5.91 µM	> 100 µM	1.88 µM	10.6 µM	7.77 µM	> 100 µM	2.22 µM	> 100 µM	2.67 µM	> 100 µM	5.07 µM	97.5 µM	2.33 µM	> 100 µM	6.95 µM	> 100 µM	2.01 µM	> 100 µM
COc1ccc(C/C(C)=C(\c2ccc(OCCN3CCOCC3)cc2)c2ccc(OC(=O)Cc3ccccc3)cc2)cc1	0.462 µM	0.971 µM	0.583 µM	1.26 µM	0.961 µM	12.5 µM	0.578 µM	1.09 µM	0.593 µM	1.91 µM	0.59 µM	1.19 µM	0.668 µM	1.49 µM	0.813 µM	8.27 µM	0.691 µM	2.38 µM	0.288 µM	0.716 µM
N=c1c2c(-c3ccccc3)c(-c3ccccc3)n(Cc3ccccc3)c2ncn1CCCO	3.3 µM	19.7 µM	1.4 µM	8.33 µM	1.33 µM	17.6 µM	1.75 µM	5.17 µM	0.743 µM	11.4 µM	2 µM	6.54 µM	1.43 µM	7.07 µM	1.87 µM	12.8 µM	0.817 µM	12.9 µM	0.363 µM	3.77 µM
COc1ccc(-c2nnc(SCC(=O)Nc3ccc(/C(C)=N\O)cc3)n2-c2ccccc2)cc1OC	2.72 µM	46.1 µM	4.26 µM	23.8 µM	> 100 µM	> 100 µM	> 100 µM	> 100 µM	> 100 µM	> 100 µM	97.4 µM	> 100 µM	> 100 µM	> 100 µM	> 100 µM	> 100 µM	7.28 µM	> 100 µM	> 100 µM	> 100 µM
C=C(C)[C@@H]1CC[C@]2(C(=O)NCCNCCNCCN)CC[C@]3(C)[C@H](CC[C@@H]4[C@@]5(C)CC[C@H](O)C(C)(C)[C@@H]5CC[C@]43C)[C@@H]12	19.6 µM	64.7 µM	15.1 µM	37.1 µM	18.9 µM	59 µM	15.1 µM	33.1 µM	11.5 µM	> 100 µM	11 µM	28.7 µM	14.1 µM	29.5 µM	4.55 µM	78.2 µM	15.5 µM	40.4 µM	14.6 µM	34 µM
CS(=O)(=O)c1ccc(-c2cnc(N)c(C(=O)Nc3ccccc3)n2)cc1	6.59 µM	> 100 µM	> 67.6 µM	> 100 µM	22.6 µM	> 100 µM	> 100 µM	> 100 µM	3.4 µM	> 100 µM	20.7 µM	> 100 µM	3.9 µM	> 100 µM	4 µM	> 100 µM	> 100 µM	> 100 µM	7.5 µM	> 100 µM
O=Cc1cn(Cc2cccc(Cl)c2)c2ccccc12	0.135 µM	0.299 µM	7.72 µM	21.5 µM	7.99 µM	28.2 µM	1.05 µM	3.63 µM	6.69 µM	31.8 µM	11.4 µM	26.9 µM	12.5 µM	26.2 µM	9.99 µM	50.3 µM	–	0.0499 µM	13 µM	32.3 µM
Cc1nn(-c2ccccc2)c2c1CC(=O)Nc1ccccc1-2	0.027 µM	–	0.578 µM	> 100 µM	–	3.73 µM	0.273 µM	> 100 µM	0.0843 µM	9.19 µM and 1.99 µM	0.188 µM	> 100 µM	0.624 µM and 0.222 µM	7.54 µM and 2.49 µM	0.112 µM	–	0.465 µM	> 100 µM	0.0906 µM	–
C=C1CC2(C[C@@H](c3ccccc3)O[C@@H](c3ccccc3)C2)OC1=O (stereo not given in full)	–	23.5 µM	–	4.58 µM	–	15.4 µM	–	10.8 µM	–	5.61 µM	–	3.34 µM	–	14.6 µM	–	5.34 µM	–	32 µM	–	8.97 µM
Cn1c(=O)c(Oc2ccc(F)cc2F)cc2cnc(NC(CO)CO)nc21	> 25 µM	> 25 µM	> 25 µM	> 25 µM	> 25 µM	> 25 µM	> 25 µM	> 25 µM	> 25 µM	> 25 µM	> 25 µM	> 25 µM	> 25 µM	> 25 µM	> 25 µM	> 25 µM	> 25 µM	> 25 µM	> 25 µM	> 25 µM
CC1=CCC(OC(=O)C(C)(C)CCC(O)(C(=O)OC2(C(C)C)CCC3(C)OC3C2)C(C)C)(C(C)C)CC1 (stereo not given)	0.0508 µM	0.935 µM	0.643 µM	1.39 µM	0.635 µM	2.63 µM	0.727 µM	1.5 µM	0.131 µM	4.99 µM	0.654 µM	1.46 µM	2.13 µM	7.33 µM	0.132 µM	50 µM	0.693 µM	1.85 µM	0.606 µM	1.75 µM
